In patent US20260191802A1, “DRUG TO TREAT STIMULANT ADDICTION” (SINGLE DOSE THERAPEUTICS, INC., priority 2023, published 2026):

Experiments:
[1] = system: participants who had self-reported drug dependencies to a drug of concern; test: Exploratory study of bromantane intervention in participants with self-reported drug dependencies; format: in vivo, human
Procedure: To investigate the utility of bromantane as a single-agent pharmacological intervention to interrupt stimulant dependence, an exploratory study was conducted with participants who had self-reported drug dependencies to a drug of concern. The intervention consisted of Test Article (bromantane) administered at a dose of 50 mg qd po for 7 days, starting on the first day of Week 1 of the study. Results from the exploratory study are summarized in [FIG. 2]. The number of days the drug of concern was used by the participant during each 1-week period during the 4-week study is shown in the Drug Dependency column.
In addition to being an effective single-agent pharmacological intervention to interrupt stimulant dependence, it was discovered that bromantane has utility as a treatment for certain comorbidities that are specifically underpinned by maladaptive learning, such as occupational burnout exacerbated by conditioned fear responses and attention-deficit/hyperactivity disorder arising from inhibitory control dysfunction. […] Therefore, the present disclosure also provides novel therapeutic methods of use for bromantane to facilitate extinction learning in the treatment of mental disorders or syndromes.

[2] = Aqueous equilibrium solubility, slurry in water, HPLC of supernatant; format: physicochemical; settings: 24 hours of equilibration at room temperature
[3] = Dynamic Vapor Sorption (DVS) isothermal water sorption and desorption; format: physicochemical; settings: 25° C. and 80% RH
Procedure: The solubility advantage imparted by a specific salt form of bromantane compared to the free base form cannot be predicted with certainty because the interactions of the counterion with the therapeutic agent and dissolution medium are unique and complex. Empirical testing is necessary. Dynamic Vapor Sorption (DVS) testing was performed to compare the isothermal water sorption and desorption behaviors of bromantane free base Form I [FIG. 22] with that of bromantane hydrochloride Form I [FIG. 23].

[4] = Onset of therapeutic effect after oral administration; format: in vivo; settings: orally administered
From the text: The objective of the present disclosure is to improve the standard of care in treating mental disorders, such as StUD, by facilitating extinction learning through the administration of a therapeutically effective amount of bromantane or an analogue thereof. While bromantane or an analogue of bromantane can be administered uncompounded, administering a pharmaceutical preparation that ensures consistent absorption and fosters patient adherence to the treatment regimen is advantageous. For example, the onset of therapeutic effect for orally administered crystalline bromantane free base is slow (2-3 hours) due to solubility-limited absorption and high first-pass extraction. Preparations that improve bromantane's solubility or bioavailability to produce a faster onset of therapeutic effect are advantageous for addressing acute incentive salience expeditiously in the treatment of StUD, thereby increasing the likelihood of patient adherence to the treatment regimen and reducing the likelihood of relapse. Accordingly, the present disclosure also provides novel, advantageous pharmaceutical preparations of bromantane and their methods of use.

[5] = participants with cocaine or amphetamine dependencies, 50 mg qd po for 7 days, 4-week study

## Brc1ccc(NC2C3CC4CC(C3)CC2C4)cc1 (stereo not drawn) [bromantane]
[1]; amphetamine, methamphetamine, cocaine
  cravings and withdrawal syndrome associated with addiction to stimulants of abuse: eliminates or significantly reduces
[1]; analysis of subjective effects reported by participants
  counterproductive behaviors and thought patterns triggered by conditioned stimuli: pronounced reduction
[1]; in vivo
  secondary dependence: without leading to secondary dependence
[1]; participant with opioid dependence, during the period of intervention, 50 mg qd po for 7 days
  opioid use: reduction in opioid use
[1]; [5]
  abstinence from drug of concern: achieved abstinence on the first day of intervention
  duration of maintained abstinence: maintain abstinence for approximately three weeks
[1]; participants, 50 mg qd po for 7 days
  caffeine use: unplanned reduction in caffeine use
[1]; self-reported by participants
  insomnia caused by rumination: Alleviation of insomnia
  temperament (threshold for irritability or anger): improved temperaments

## Brc1ccc(NC2C3CC4CC(C3)CC2C4)cc1 (stereo not drawn) [bromantane free base Form I]
[2]
  equilibrium solubility in water (solution state concentration of bromantane): below the detection limit
[3]
  hygroscopicity (water gain by DVS): non-hygroscopic (x<0.2% w/w gain at 25 °C and 80% RH)
[4]
  onset of therapeutic effect: 2 to 3 h
